According to publication PMC5218480 (PLoS ONE, 2017):

System: MV-4-11 cells
Experiment: Gene expression microarray analysis (Affymetrix PrimeView) and GSEA
Type: cell-based, human
Set-up: RFU PODN (11730768_x_at) / Fold change /veh PODN (11730768_x_at) / RFU LINC00158 (11744669_a_at) / Fold change /veh LINC00158 (11744669_a_at) / RFU DUSP10 (11751237_a_at) / Fold change /veh DUSP10 (11751237_a_at) / RFU ID3 (11757404_x_at) / Fold change /veh ID3 (11757404_x_at) / RFU PLEKHG5 (11737974_s_at) / Fold change /veh PLEKHG5 (11737974_s_at) / RFU LRRC4B (11730491_at) / Fold change /veh LRRC4B (11730491_at) / RFU GIMAP4 (11747438_a_at) / Fold change /veh GIMAP4 (11747438_a_at) / RFU KRT8 (11758183_x_at) / Fold change /veh KRT8 (11758183_x_at) / RFU CNN1 (11734310_a_at) / Fold change /veh CNN1 (11734310_a_at) / RFU VPS37D (11726825_at) / Fold change /veh VPS37D (11726825_at) / RFU C10orf10 (11716522_x_at) / Fold change /veh C10orf10 (11716522_x_at) / RFU KIR2DL2 /// KIR2DL4 /// KIR2DL5A /// KIR2DL5B /// KIR2DS1 /// KIR2DS2 /// KIR2DS3 /// KIR2DS4 /// KIR3DL3 /// KIR3DL3 /// KIR3DS1 (11738374_at) / Fold change /veh KIR2DL2 /// KIR2DL4 /// KIR2DL5A /// KIR2DL5B /// KIR2DS1 /// KIR2DS2 /// KIR2DS3 /// KIR2DS4 /// KIR3DL3 /// KIR3DL3 /// KIR3DS1 (11738374_at) / RFU C1QL1 (11718748_at) / Fold change /veh C1QL1 (11718748_at) / RFU TMPRSS4 (11747572_a_at) / Fold change /veh TMPRSS4 (11747572_a_at) / RFU HAMP (11756126_x_at) / Fold change /veh HAMP (11756126_x_at) / RFU RNFT2 (11725882_a_at) / Fold change /veh RNFT2 (11725882_a_at) / RFU NR4A2 (11747474_a_at) / Fold change /veh NR4A2 (11747474_a_at) / RFU ABCC12 (11746883_a_at) / Fold change /veh ABCC12 (11746883_a_at) / RFU TMEM136 (11760407_x_at) / Fold change /veh TMEM136 (11760407_x_at) / RFU CLDN22 /// WWC2 (11732394_at) / Fold change /veh CLDN22 /// WWC2 (11732394_at) / RFU HLA-DPB1 (11760878_x_at) / Fold change /veh HLA-DPB1 (11760878_x_at) / RFU SPINT1 (11716480_a_at) / Fold change /veh SPINT1 (11716480_a_at) / RFU GAP43 (11754022_s_at) / Fold change /veh GAP43 (11754022_s_at) / RFU A4GNT (11735810_at) / Fold change /veh A4GNT (11735810_at) / RFU PRB3 (11715151_x_at) / Fold change /veh PRB3 (11715151_x_at) / RFU TUBB4B (11761932_at) / Fold change /veh TUBB4B (11761932_at) / RFU CAPN14 (11732068_a_at) / Fold change /veh CAPN14 (11732068_a_at) / RFU TMCC2 (11721928_a_at) / Fold change /veh TMCC2 (11721928_a_at) / RFU IRGQ (11745062_a_at) / Fold change /veh IRGQ (11745062_a_at) / RFU FAM174B (11720279_a_at) / Fold change /veh FAM174B (11720279_a_at) / RFU TMPRSS4 (11748680_a_at) / Fold change /veh TMPRSS4 (11748680_a_at) / RFU FAM212B (11763350_a_at) / Fold change /veh FAM212B (11763350_a_at) / RFU PLEKHG5 (11743358_a_at) / Fold change /veh PLEKHG5 (11743358_a_at) / RFU ZSCAN30 (11745921_a_at) / Fold change /veh ZSCAN30 (11745921_a_at) / RFU CMKLR1 (11741424_a_at) / Fold change /veh CMKLR1 (11741424_a_at) / RFU LOC101060620 /// MAPK8IP1 (11723275_at) / Fold change /veh LOC101060620 /// MAPK8IP1 (11723275_at) / RFU SPTSSB (11747773_x_at) / Fold change /veh SPTSSB (11747773_x_at) / RFU PRSS12 (11739890_at) / Fold change /veh PRSS12 (11739890_at) / RFU BIN1 (11741810_x_at) / Fold change /veh BIN1 (11741810_x_at) / RFU WNT11 (11732464_a_at) / Fold change /veh WNT11 (11732464_a_at) / RFU C10orf10 (11716521_a_at) / Fold change /veh C10orf10 (11716521_a_at) / RFU C5orf56 (11738089_at) / Fold change /veh C5orf56 (11738089_at) / RFU CYB561 (11721691_x_at) / Fold change /veh CYB561 (11721691_x_at) / RFU ANKRD19P (11752326_a_at) / Fold change /veh ANKRD19P (11752326_a_at) / RFU OR2T12 /// OR2T33 /// OR2T8 (11738714_s_at) / Fold change /veh OR2T12 /// OR2T33 /// OR2T8 (11738714_s_at) / RFU VCAN (11748164_a_at) / Fold change /veh VCAN (11748164_a_at) / RFU JSRP1 (11732532_at) / Fold change /veh JSRP1 (11732532_at) / RFU KRTAP10-11 (11738290_x_at) / Fold change /veh KRTAP10-11 (11738290_x_at) / RFU MYO3A (11730013_a_at) / Fold change /veh MYO3A (11730013_a_at) / RFU EBF3 (11725865_a_at) / Fold change /veh EBF3 (11725865_a_at) / RFU CAMK2N1 (11719241_x_at) / Fold change /veh CAMK2N1 (11719241_x_at) / RFU C5orf56 (11738088_a_at) / Fold change /veh C5orf56 (11738088_a_at) / RFU OLFML3 (11715873_a_at) / Fold change /veh OLFML3 (11715873_a_at) / RFU LOC100653217 /// NTM (11731650_a_at) / Fold change /veh LOC100653217 /// NTM (11731650_a_at) / RFU MAPK11 (11762145_a_at) / Fold change /veh MAPK11 (11762145_a_at) / RFU FIZ1 (11724087_x_at) / Fold change /veh FIZ1 (11724087_x_at) / RFU OASL (11726364_x_at) / Fold change /veh OASL (11726364_x_at) / RFU SOX15 (11748057_x_at) / Fold change /veh SOX15 (11748057_x_at) / RFU CD79A (11719716_a_at) / Fold change /veh CD79A (11719716_a_at) / RFU HIST1H1D (11736915_at) / Fold change /veh HIST1H1D (11736915_at) / RFU CASKIN2 (11723855_a_at) / Fold change /veh CASKIN2 (11723855_a_at) / RFU LOC730098 (11760151_x_at) / Fold change /veh LOC730098 (11760151_x_at) / RFU OR4N2 (11742367_at) / Fold change /veh OR4N2 (11742367_at) / RFU PRRT2 (11749266_a_at) / Fold change /veh PRRT2 (11749266_a_at) / RFU SNX32 (11753110_a_at) / Fold change /veh SNX32 (11753110_a_at) / RFU CDHR5 (11726645_a_at) / Fold change /veh CDHR5 (11726645_a_at) / RFU RCAN1 (11760418_a_at) / Fold change /veh RCAN1 (11760418_a_at) / RFU FAM167A (11723789_a_at) / Fold change /veh FAM167A (11723789_a_at) / RFU FAM26E (11764081_at) / Fold change /veh FAM26E (11764081_at) / RFU ISYNA1 (11749810_s_at) / Fold change /veh ISYNA1 (11749810_s_at) / RFU ACY1 (11761880_at) / Fold change /veh ACY1 (11761880_at) / RFU 11764098_at / Fold change /veh 11764098_at / RFU SAMD14 (11745864_x_at) / Fold change /veh SAMD14 (11745864_x_at) / RFU NPB (11741838_a_at) / Fold change /veh NPB (11741838_a_at) / RFU TMPRSS6 (11731388_a_at) / Fold change /veh TMPRSS6 (11731388_a_at) / RFU KRTAP10-2 (11738614_at) / Fold change /veh KRTAP10-2 (11738614_at) / RFU ARHGAP8 /// PRR5-ARHGAP8 (11727945_x_at) / Fold change /veh ARHGAP8 /// PRR5-ARHGAP8 (11727945_x_at) / RFU KRTAP5-7 /// NADSYN1 (11734609_at) / Fold change /veh KRTAP5-7 /// NADSYN1 (11734609_at) / RFU RASL12 (11751679_a_at) / Fold change /veh RASL12 (11751679_a_at) / RFU CDKN2B (11736163_a_at) / Fold change /veh CDKN2B (11736163_a_at) / RFU PRF1 (11729649_at) / Fold change /veh PRF1 (11729649_at) / RFU, ZNF638 /// ZNF638-IT1 / Fold change vs veh, ZNF638 /// ZNF638-IT1 / RFU, PANK3 / Fold change vs veh, PANK3 / RFU, SH3YL1 / Fold change vs veh, SH3YL1 / RFU, ZEB2 / Fold change vs veh, ZEB2 / RFU, NRIP1 / Fold change vs veh, NRIP1 / RFU, PTTG1IP / Fold change vs veh, PTTG1IP / RFU, CAPN2 / Fold change vs veh, CAPN2 / RFU, MED14 / Fold change vs veh, MED14 / RFU, SNORA58 / Fold change vs veh, SNORA58 / RFU, C1orf63 / Fold change vs veh, C1orf63 / RFU, LRRFIP1 / Fold change vs veh, LRRFIP1 / RFU, NDUFAF7 / Fold change vs veh, NDUFAF7 / RFU, SLC12A2 / Fold change vs veh, SLC12A2 / RFU, IBTK / Fold change vs veh, IBTK / RFU, ESF1 / Fold change vs veh, ESF1 / Fold change vs veh, TMEM50B / RFU, TAOK1 / Fold change vs veh, TAOK1 / RFU, ACBD3 / Fold change vs veh, ACBD3 / RFU, TMA16 / Fold change vs veh, TMA16 / RFU, RWDD3 / Fold change vs veh, RWDD3 / RFU, BCAT1 / Fold change vs veh, BCAT1 / RFU, EDEM3 / Fold change vs veh, EDEM3 / RFU, TMEM33 / Fold change vs veh, TMEM33 / RFU, WDR75 / Fold change vs veh, WDR75 / RFU, AHCTF1 / Fold change vs veh, AHCTF1 / RFU, TFRC / Fold change vs veh, TFRC / RFU, ZDHHC17 / Fold change vs veh, ZDHHC17 / RFU, NOM1 / Fold change vs veh, NOM1 / RFU, ARL8B / Fold change vs veh, ARL8B / RFU, ZBTB11 / Fold change vs veh, ZBTB11 / RFU, TAMM41 / Fold change vs veh, TAMM41 / RFU, KIAA1704 /// LOC100996395 / Fold change vs veh, KIAA1704 /// LOC100996395 / RFU, ING1 / Fold change vs veh, ING1 / RFU, TRMT61B / Fold change vs veh, TRMT61B / RFU, FUBP3 / Fold change vs veh, FUBP3 / RFU, TP53 / Fold change vs veh, TP53 / RFU, TNKS2 / Fold change vs veh, TNKS2 / RFU, ZFP14 / Fold change vs veh, ZFP14 / RFU, ACTR2 / Fold change vs veh, ACTR2 / RFU, PPP3R1 / Fold change vs veh, PPP3R1 / RFU, PIK3R1 / Fold change vs veh, PIK3R1 / RFU, HNRNPA1 / Fold change vs veh, HNRNPA1 / RFU, RNF170 / Fold change vs veh, RNF170 / RFU, ZNF28 / Fold change vs veh, ZNF28 / RFU, RNGTT / Fold change vs veh, RNGTT / RFU, OGT / Fold change vs veh, OGT / RFU, BRD1 / Fold change vs veh, BRD1 / RFU, MARS / Fold change vs veh, MARS / RFU, ZNF655 / Fold change vs veh, ZNF655 / RFU, FAHD1 / Fold change vs veh, FAHD1 / RFU, BDP1 / Fold change vs veh, BDP1 / RFU, LRRCC1 / Fold change vs veh, LRRCC1 / RFU, ARID1A / Fold change vs veh, ARID1A / RFU, ZNF146 / Fold change vs veh, ZNF146 / RFU, ZNF330 / Fold change vs veh, ZNF330 / RFU, GPN3 / Fold change vs veh, GPN3 / RFU, C9orf123 / Fold change vs veh, C9orf123 / RFU, N4BP2L2 / Fold change vs veh, N4BP2L2 / RFU, ARFIP1 / Fold change vs veh, ARFIP1 / RFU, FAM179B / Fold change vs veh, FAM179B / RFU, BCL10 / Fold change vs veh, BCL10 / RFU, UHRF1BP1L / Fold change vs veh, UHRF1BP1L / RFU, BET1 / Fold change vs veh, BET1 / RFU, CNOT2 / Fold change vs veh, CNOT2 / RFU, ZNF268 / Fold change vs veh, ZNF268 / Fold change vs veh, ZNF507 / RFU, DGCR2 / Fold change vs veh, DGCR2 / RFU, WDSUB1 / Fold change vs veh, WDSUB1 / Fold change vs veh, HSP90B1 /// MIR3652 / RFU, ADSS / Fold change vs veh, ADSS / RFU, GK / Fold change vs veh, GK / RFU, ZNF148 / Fold change vs veh, ZNF148 / RFU, TAF9 / Fold change vs veh, TAF9 / RFU, SLC1A5 / Fold change vs veh, SLC1A5 / RFU, SLMO2 / Fold change vs veh, SLMO2 / RFU, ABCC4 / Fold change vs veh, ABCC4 / RFU, LOC101060439 /// RAP1B / Fold change vs veh, LOC101060439 /// RAP1B / RFU, RFX7 / Fold change vs veh, RFX7 / RFU, GTPBP10 / Fold change vs veh, GTPBP10 / RFU, CNEP1R1 / Fold change vs veh, CNEP1R1 / RFU, BIVM-ERCC5 /// ERCC5 / Fold change vs veh, BIVM-ERCC5 /// ERCC5 / RFU, ILF3 / Fold change vs veh, ILF3 / RFU 11762660_at / Fold change /veh 11762660_at / RFU VCAN (11757783_s_at) / Fold change /veh VCAN (11757783_s_at) / RFU DDX43 (11728927_at) / Fold change /veh DDX43 (11728927_at) / RFU KRT8 (11758188_x_at) / Fold change /veh KRT8 (11758188_x_at) / RFU NKD1 (11759106_at) / Fold change /veh NKD1 (11759106_at) / RFU SRD5A1 (11742802_a_at) / Fold change /veh SRD5A1 (11742802_a_at) / RFU TPSAB1 /// TPSB2 (11721975_s_at) / Fold change /veh TPSAB1 /// TPSB2 (11721975_s_at) / RFU GSTM3 (11746129_a_at) / Fold change /veh GSTM3 (11746129_a_at) / RFU IL23R (11737362_x_at) / Fold change /veh IL23R (11737362_x_at) / RFU TMEM51 (11727254_a_at) / Fold change /veh TMEM51 (11727254_a_at) / RFU PIWIL2 (11732686_x_at) / Fold change /veh PIWIL2 (11732686_x_at) / RFU ORM1 (11744905_x_at) / Fold change /veh ORM1 (11744905_x_at) / RFU CCDC152 (11743942_at) / Fold change /veh CCDC152 (11743942_at) / RFU ECM1 (11717891_a_at) / Fold change /veh ECM1 (11717891_a_at) / RFU IL23R (11748794_a_at) / Fold change /veh IL23R (11748794_a_at) / RFU TNFAIP8L3 (11732012_x_at) / Fold change /veh TNFAIP8L3 (11732012_x_at) / RFU MBOAT4 (11741988_at) / Fold change /veh MBOAT4 (11741988_at) / RFU 11764193_at / Fold change /veh 11764193_at / RFU TMEM53 (11763286_at) / Fold change /veh TMEM53 (11763286_at) / RFU MAGEB2 (11727129_at) / Fold change /veh MAGEB2 (11727129_at) / RFU TMEM200A (11744735_a_at) / Fold change /veh TMEM200A (11744735_a_at) / RFU CCDC152 (11751479_a_at) / Fold change /veh CCDC152 (11751479_a_at) / RFU FAM211A (11726209_a_at) / Fold change /veh FAM211A (11726209_a_at) / RFU RGS16 (11746705_a_at) / Fold change /veh RGS16 (11746705_a_at) / RFU VCAN (11755009_s_at) / Fold change /veh VCAN (11755009_s_at) / RFU RHOB (11743442_s_at) / Fold change /veh RHOB (11743442_s_at) / RFU RGS16 (11720943_a_at) / Fold change /veh RGS16 (11720943_a_at) / RFU RGS16 (11720944_at) / Fold change /veh RGS16 (11720944_at) / RFU, VPS4B / Fold change vs veh, VPS4B / RFU, CREB1 / Fold change vs veh, CREB1 / RFU, DNAJC13 / Fold change vs veh, DNAJC13 / RFU, GNAQ / Fold change vs veh, GNAQ / RFU, CDK5R1 / Fold change vs veh, CDK5R1 / RFU, ZRANB3 / Fold change vs veh, ZRANB3 / RFU, CUL4A / Fold change vs veh, CUL4A / RFU, CCNY / Fold change vs veh, CCNY / RFU, UFL1 / Fold change vs veh, UFL1 / RFU, COG3 / Fold change vs veh, COG3 / RFU, DIAPH2 / Fold change vs veh, DIAPH2 / RFU, SKA2 / Fold change vs veh, SKA2 / RFU, AFF3 / Fold change vs veh, AFF3 / RFU, LMF1 / Fold change vs veh, LMF1 / RFU, IPO11 / Fold change vs veh, IPO11 / RFU, DFFB / Fold change vs veh, DFFB / RFU, FOXP1 / Fold change vs veh, FOXP1 / RFU, CARD8 / Fold change vs veh, CARD8 / RFU, STRN3 / Fold change vs veh, STRN3 / RFU, ADK / Fold change vs veh, ADK / RFU, RASSF2 / Fold change vs veh, RASSF2 / RFU, WIPF1 / Fold change vs veh, WIPF1 / RFU, LARP1B / Fold change vs veh, LARP1B / RFU, RASA1 / Fold change vs veh, RASA1 / RFU, RB1 / Fold change vs veh, RB1 / RFU, PPFIA1 / Fold change vs veh, PPFIA1 / RFU, MAT2A / Fold change vs veh, MAT2A / RFU, CCT5 / Fold change vs veh, CCT5 / RFU, WDR92 / Fold change vs veh, WDR92 / RFU, CUX1 / Fold change vs veh, CUX1 / RFU, TTC7A / Fold change vs veh, TTC7A / RFU, TMEM135 / Fold change vs veh, TMEM135 / RFU, DEPTOR / Fold change vs veh, DEPTOR / RFU, CPM / Fold change vs veh, CPM / RFU, DNAJB6 / Fold change vs veh, DNAJB6 / RFU, CACNA2D3 / Fold change vs veh, CACNA2D3 / RFU, DTX4 / Fold change vs veh, DTX4 / RFU, TFCP2 / Fold change vs veh, TFCP2 / RFU, GMCL1 /// GMCL1P1 / Fold change vs veh, GMCL1 /// GMCL1P1 / RFU, AEBP2 / Fold change vs veh, AEBP2 / RFU, SNHG1 /// SNORD22 /// SNORD25 /// SNORD26 /// SNORD27 /// SNORD28 /// SNORD29 /// SNORD31 / Fold change vs veh, SNHG1 /// SNORD22 /// SNORD25 /// SNORD26 /// SNORD27 /// SNORD28 /// SNORD29 /// SNORD31 / Fold change (Aza/veh), C12orf56 (ProbeSet 11735607_a_at) / Fold change (ACY-1035/veh), C12orf56 (ProbeSet 11735607_a_at) / Fold change (Aza/veh), FGFR1OP (ProbeSet 11751329_s_at) / Fold change (ACY-1035/veh), FGFR1OP (ProbeSet 11751329_s_at) / Fold change (Aza/veh), VPS36 (ProbeSet 11739960_a_at) / Fold change (ACY-1035/veh), VPS36 (ProbeSet 11739960_a_at) / RFU SYPL1 (11715823_x_at) / Fold change /veh SYPL1 (11715823_x_at) / RFU IGFBP7 (11715501_s_at) / Fold change /veh IGFBP7 (11715501_s_at) / RFU REEP3 (11722064_at) / Fold change /veh REEP3 (11722064_at) / RFU IGLL1 (11728026_x_at) / Fold change /veh IGLL1 (11728026_x_at): dose or concentration left out as unconfirmed
Settings: MV-4-11 cells, 48 hours

Nc1ccc(-c2cccs2)cc1NC(=O)c1ccc2c(c1)cc(C1CC1)n2CCN1CCOCC1 [ACY-1035]
Fold change /veh LOC730098 (11760151_x_at): 1.00
